Assay results from US6319702A, “Nucleic acids encoding mutant human carboxypeptidase A enzymes” (Glaxo Wellcome, Inc., priority 1993, dated 2001).
Where two headings read alike, the source gives them in different places.

Assays:
[1] = system: mutant enzyme; test: Substrate behaviour with mutant enzyme; assay type: biochemical, human
Text: This type of compound is not useful for ADEPT.

[2] = system: 268gly; test: Enzyme kinetics of prodrugs with 268gly mutant of human CPA1 (coupled assay); assay type: biochemical
Text: (§1) As indicated herein, the in vivo stable prodrug of the present invention should be a better substrate for a mutant enzyme than the corresponding wild type enzyme in order for the stable prodrug to be activated selectively at the tumour. […] The most relevant kinetic constant in the table is the kcat/Km, which provides an estimate of the second order rate constant for the enzyme catalyzed conversion of prodrug to methotrexate. Thus, the larger the kcat/Km, the more efficient the enzyme with a particular substrate. […] Thus, the single mutation at 268 from thr to gly converted very poor substrates in the wild type enzyme to excellent substrates in the mutant enzyme. […] Thus, the compounds are much better substrates for the mutant enzyme than the wild type enzyme which permits very specific tumor targeted activation of the nontoxic, stable prodrug to the active agent.
(§2) Kinetics were determined by a modification of the coupled assay of Kuefner, et al (1989) Biochemistry 28 2288-2297 in which the product MTX is converted by excess carboxypeptidase G to the pteroate of MTX. In this assay the reaction is followed spectrophotometrically at 315 nm; at this wavelength the change in molar absorbtivity for the coupled reaction was determined to be 9.57 mM^-1 cm^-1. Assays were performed at 25° C. in 25 mM tris-HCl, 100 mM NaCl, pH 7.4. Prodrugs were preincubated at 25° C. with buffer and 17 milliunits of Sigma #C-9658 carboxypeptidase G in 1 ml total volume. Assay was initiated with carboxypeptidase A or the appropriate mutant. Initial velocities were obtained, and standard Michaelis-Menten calculations were used to determine kinetic constants (in Biochemistry, Lehninger, A. L. 1970, Worth Publishers, Inc, NY).

[3] = system: 268ala; test: Enzyme kinetics of prodrugs with 268ala mutant of human CPA1 (coupled assay); assay type: biochemical; conditions: rate too slow to assay
Text: as §1, §2

[4] = in vivo; conditions: mouse, iv
[5] = Stability and biodistribution of prodrugs in vivo (HPLC of plasma and tissues); set-up: species or system mice (CD-1 nude; BALB/C where indicated); conditions: for stability in vivo (in words): mice
[6] = molecular target: T1, wild type human carboxypeptidase A1 (Homo sapiens, UniProt P15085); test: Enzyme kinetics of prodrugs with wild type human carboxypeptidase A1 (coupled assay); assay type: biochemical
T1 sequence (P15085 111-419): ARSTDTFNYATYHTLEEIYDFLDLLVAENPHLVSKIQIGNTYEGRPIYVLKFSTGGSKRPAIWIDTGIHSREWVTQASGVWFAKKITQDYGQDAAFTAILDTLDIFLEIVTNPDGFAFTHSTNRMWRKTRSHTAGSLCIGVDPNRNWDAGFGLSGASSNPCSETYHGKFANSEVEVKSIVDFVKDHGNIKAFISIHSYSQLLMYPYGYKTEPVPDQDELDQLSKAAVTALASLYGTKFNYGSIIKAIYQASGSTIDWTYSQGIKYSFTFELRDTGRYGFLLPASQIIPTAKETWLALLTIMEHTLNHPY
Text: as §1, §2

[7] = CECUM, 30 min, 50 mg/kg i.p. or i.v., CD-1 nude mice
[8] = CECUM, 120 min, 50 mg/kg i.p. or i.v., CD-1 nude mice
[9] = FECES, 30 min, 50 mg/kg i.p. or i.v., CD-1 nude mice
[10] = FECES, 120 min, 50 mg/kg i.p. or i.v., CD-1 nude mice
[11] = KIDNEY, 30 min, 50 mg/kg i.p. or i.v., CD-1 nude mice
[12] = LARGE INTESTINE, 120 min, 50 mg/kg i.p. or i.v., CD-1 nude mice
[13] = LIVER, 30 min, 50 mg/kg i.p. or i.v., CD-1 nude mice
[14] = LIVER, 120 min, 50 mg/kg i.p. or i.v., CD-1 nude mice
[15] = SMALL INTESTINE, 30 min, 50 mg/kg i.p. or i.v., CD-1 nude mice
[16] = SMALL INTESTINE, 120 min, 50 mg/kg i.p. or i.v., CD-1 nude mice
[17] = mouse, cecum, 50 mg/kg, CECUM, 30 min, 50 mg/kg i.p. or i.v., CD-1 nude mice, read-out: stability: percentage of material observed as intact prodrug, cecum
[18] = mouse, cecum, 50 mg/kg, CECUM, 120 min, 50 mg/kg i.p. or i.v., CD-1 nude mice, read-out: stability: percentage of material observed as intact prodrug, cecum
[19] = mouse, feces, 50 mg/kg, FECES, 30 min, 50 mg/kg i.p. or i.v., CD-1 nude mice, read-out: stability: percentage of material observed as intact prodrug, feces (converted)
[20] = mouse, feces, 50 mg/kg, FECES, 120 min, 50 mg/kg i.p. or i.v., CD-1 nude mice, read-out: stability: percentage of material observed as intact prodrug, feces
[21] = mouse, kidney, 50 mg/kg, KIDNEY, 30 min, 50 mg/kg i.p. or i.v., CD-1 nude mice, read-out: stability: percentage of material observed as intact prodrug, kidney
[22] = mouse, large intestine, 50 mg/kg, LARGE INTESTINE, 120 min, 50 mg/kg i.p. or i.v., CD-1 nude mice, read-out: stability: percentage of material observed as intact prodrug, large intestine
[23] = mouse, liver, 50 mg/kg, LIVER, 30 min, 50 mg/kg i.p. or i.v., CD-1 nude mice, read-out: stability: percentage of material observed as intact prodrug, liver (converted)
[24] = mouse, liver, 50 mg/kg, LIVER, 120 min, 50 mg/kg i.p. or i.v., CD-1 nude mice, read-out: stability: percentage of material observed as intact prodrug, liver
[25] = mouse, plasma, 50 mg/kg, PLASMA, 30 min, 50 mg/kg i.p. or i.v., CD-1 nude mice, read-out: concentration of prodrug in plasma
[26] = mouse, plasma, 50 mg/kg, PLASMA, 30 min, 50 mg/kg i.p. or i.v., CD-1 nude mice, read-out: stability: percentage of material observed as intact prodrug, plasma
[27] = mouse, small intestine, 50 mg/kg, SMALL INTESTINE, 30 min, 50 mg/kg i.p. or i.v., CD-1 nude mice, read-out: stability: percentage of material observed as intact prodrug, small intestine
[28] = mouse, small intestine, 50 mg/kg, SMALL INTESTINE, 120 min, 50 mg/kg i.p. or i.v., CD-1 nude mice, read-out: stability: percentage of material observed as intact prodrug, small intestine

Compound: CN(Cc1cnc2nc(N)nc(N)c2n1)c1ccc(C(=O)N[C@@H](CCC(=O)O)C(=O)N[C@@H](Cc2cccc(C(C)(C)C)c2)C(=O)O)cc1 [Prodrug 12, N-(4-(((2,4-diamino-6-pterdinyl)methyl)methylamino)benzoyl)-L-glutam-1-yl-3-tert-butyl-L-phenylalanine]
- substrate for a mutant enzyme (in words) [1]: good substrates for a mutant enzyme
- activity of 268Gly compared with human CPA1 with the L-phenylalanine prodrug (in words) [2]: not different
- kcat/Km ([2]; 268Gly): 0.38 µM⁻¹ s⁻¹
- Km ([2]; 268gly, 25° C., pH 7.4): 2100 nM
- kcat ([2]; 268gly, 25° C., pH 7.4): 0.81 s⁻¹
- kcat (symbol ND) [3]: ND (not determined; rate to slow assay. kcat ≤ 0.0005/sec.)
- MTD [4]: > 40 mg/kg
- NOAEL [4]: ≥ 40 mg/kg
- concentration of prodrug in cecum [5, 7]: 16.3 nmol/g
- concentration of prodrug in cecum [5, 8]: 402.3 nmol/g
- concentration of prodrug in feces [5, 9]: 1205 nmol/g
- concentration of prodrug in feces [5, 10]: 1941 nmol/g
- concentration of prodrug in kidney [5, 11]: 2.2 nmol/g
- concentration of prodrug in kidney ([5]; KIDNEY, 120 min, 50 mg/kg i.p. or i.v., CD-1 nude mice): 0.2 nmol/g
- concentration of prodrug in large intestine [5, 12]: 14.7 nmol/g
- concentration of prodrug in liver [5, 13]: 58.6 nmol/g
- concentration of prodrug in liver [5, 14]: 39.5 nmol/g
- concentration of prodrug in small intestine [5, 15]: 550.8 nmol/g
- concentration of prodrug in small intestine [5, 16]: 44.9 nmol/g
- concentration of prodrug in tumor ([5]; TUMOR, 30 min, 50 mg/kg i.p. or i.v., CD-1 nude mice): 1.6 nmol/g
- stability in vivo (in words) ([5]; 50 mg/kg): stable in vivo
- remaining at 0.5 h [5, 17]: 100%
- remaining at 2 h [5, 18]: 80.7%
- remaining at 0.5 h [5, 19]: 93%
- remaining at 2 h [5, 20]: 82%
- remaining at 0.5 h [5, 21]: 53.4%
- remaining at 2 h ([5]; mouse, kidney, 50 mg/kg, KIDNEY, 120 min, 50 mg/kg i.p. or i.v., CD-1 nude mice, read-out: stability: percentage of material observed as intact prodrug, kidney): 21.6%
- remaining at 2 h [5, 22]: 66.9%
- remaining at 0.5 h [5, 23]: 91.3%
- remaining at 2 h [5, 24]: 89.2%
- concentration at 0.5 h [5, 25]: 2600 nM
- remaining at 0.5 h [5, 26]: 100%
- concentration at 2 h ([5]; mouse, plasma, 50 mg/kg, PLASMA, 120 min, 50 mg/kg i.p. or i.v., CD-1 nude mice, read-out: concentration of prodrug in plasma): 700 nM
- remaining at 2 h ([5]; mouse, plasma, 50 mg/kg, PLASMA, 120 min, 50 mg/kg i.p. or i.v., CD-1 nude mice, read-out: stability: percentage of material observed as intact prodrug, plasma): 100%
- remaining at 0.5 h [5, 27]: 91%
- remaining at 2 h [5, 28]: 67%
- remaining at 0.5 h ([5]; mouse, tumor, 50 mg/kg, TUMOR, 30 min, 50 mg/kg i.p. or i.v., CD-1 nude mice, read-out: stability: percentage of material observed as intact prodrug, tumor): 92.8%
- human CPA catalyzed reaction (in words) [6]: not measureable
- kcat/Km for human CPA1 compared with that of the L-phenylalanine prodrug (in words) [6]: much lower
- substrate for wild type CPA (in words) [6]: not for the wild type enzyme
- kcat (symbol ND) ([6]; Human CPA1, rate too slow to assay): ND (not determined; rate to slow assay. kcat ≤ 0.0005/sec.)

Compound: Nc1nc(N)c(CCCNc2ccc(C(=O)N[C@@H](CCC(=O)O)C(=O)N[C@@H](Cc3cccc(C4CCCC4)c3)C(=O)O)cc2)c(=O)[nH]1 [Prodrug 14, N-(4-((3(2,4-diamino-1,6-dihydro-6-oxo-5-pyrimidinyl)propyl)amino)benzoyl)-L-glutam-1-yl-3-cyclopentyl-L-phenylalanine]
- substrate for a mutant enzyme (in words) [1]: good substrates for a mutant enzyme
- concentration of prodrug in cecum [5, 7]: 4.l
- concentration of prodrug in cecum [5, 8]: 65.3 nmol/g
- concentration of prodrug in feces [5, 9]: 535.0 nmol/g
- concentration of prodrug in feces [5, 10]: 932.8 nmol/g
- concentration of prodrug in kidney [5, 11]: 4.6 nmol/g
- concentration of prodrug in large intestine ([5]; LARGE INTESTINE, 30 min, 50 mg/kg i.p. or i.v., CD-1 nude mice): 9.4 nmol/g
- concentration of prodrug in large intestine [5, 12]: 34.6 nmol/g
- concentration of prodrug in liver [5, 13]: 22.5 nmol/g
- concentration of prodrug in liver [5, 14]: 42.1 nmol/g
- concentration of prodrug in small intestine [5, 15]: 218.3 nmol/g
- concentration of prodrug in small intestine [5, 16]: 127.8 nmol/g
- concentration of prodrug in spleen ([5]; SPLEEN, 30 min, 50 mg/kg i.p. or i.v., CD-1 nude mice): 2.4 nmol/g
- stability in vivo (in words) ([5]; 50 mg/kg): stable in vivo
- remaining at 0.5 h [5, 17]: 100%
- remaining at 2 h [5, 18]: 48.8%
- remaining at 0.5 h [5, 19]: 90.7%
- remaining at 2 h [5, 20]: 88%
- remaining at 0.5 h [5, 21]: 100%
- remaining at 0.5 h ([5]; mouse, large intestine, 50 mg/kg, LARGE INTESTINE, 30 min, 50 mg/kg i.p. or i.v., CD-1 nude mice, read-out: stability: percentage of material observed as intact prodrug, large intestine): 100%
- remaining at 2 h [5, 22]: 76.8%
- remaining at 0.5 h [5, 23]: 100%
- remaining at 2 h [5, 24]: 100%
- concentration at 0.5 h [5, 25]: 1100 nM
- remaining at 0.5 h [5, 26]: 100%
- remaining at 0.5 h [5, 27]: 100%
- remaining at 2 h [5, 28]: 100%
- remaining at 0.5 h ([5]; mouse, spleen, 50 mg/kg, SPLEEN, 30 min, 50 mg/kg i.p. or i.v., CD-1 nude mice, read-out: stability: percentage of material observed as intact prodrug, spleen): 100%
- substrate for wild type CPA (in words) [6]: not for the wild type enzyme
